One compound from US20230218632A1, “CYCLIC SULFONAMIDE DERIVATIVES AS TRAP1 MODULATORS AND USES THEREOF” (Amathus Therapeutics, Inc., priority 2020, published 2023) can be followed below.

Each structure is given as a SMILES string.

Test [1] relates to mIMCD3 Pkd1 KO cells. The test is described as follows: Mouse cell derived cyst assay. The class given is cell-based. The note with it: Pkd 1 KO mouse cell derived cyst forming assay; FIG. 6. The protocol:
Mouse cell derived cyst assays were performed as described in Booij, Tijmen H et al., SLAS discovery: advancing life sciences R & D vol. 22,8 (2017): 974-984, or as described below.
Murine inner medullary collecting duct cell line (mIMCD3 Pkd1^-/- cells) • mIMCD3 Pkd1 KO cells were seeded in 384 wells plates in extracellular matrix. • 4 days after seeding, cultures were co-exposed to treatments and stimuli (2.5 µM forskolin); • After 72 h, cultures were fixed, stained for nuclei and actin cytoskeleton and imaged with 4x magnification; and • Image analysis of the 3D stack was done using Ominer™ image analysis software.

Test [2] concerns the target T1, nanoLuc TRAP1 (Homo sapiens, UniProt Q12931).
T1 construct: expressed in transfected cells; host or cells: SH-SY5Y cells, transient transfection with FuGENE HD
T1 sequence (Q12931 60-704): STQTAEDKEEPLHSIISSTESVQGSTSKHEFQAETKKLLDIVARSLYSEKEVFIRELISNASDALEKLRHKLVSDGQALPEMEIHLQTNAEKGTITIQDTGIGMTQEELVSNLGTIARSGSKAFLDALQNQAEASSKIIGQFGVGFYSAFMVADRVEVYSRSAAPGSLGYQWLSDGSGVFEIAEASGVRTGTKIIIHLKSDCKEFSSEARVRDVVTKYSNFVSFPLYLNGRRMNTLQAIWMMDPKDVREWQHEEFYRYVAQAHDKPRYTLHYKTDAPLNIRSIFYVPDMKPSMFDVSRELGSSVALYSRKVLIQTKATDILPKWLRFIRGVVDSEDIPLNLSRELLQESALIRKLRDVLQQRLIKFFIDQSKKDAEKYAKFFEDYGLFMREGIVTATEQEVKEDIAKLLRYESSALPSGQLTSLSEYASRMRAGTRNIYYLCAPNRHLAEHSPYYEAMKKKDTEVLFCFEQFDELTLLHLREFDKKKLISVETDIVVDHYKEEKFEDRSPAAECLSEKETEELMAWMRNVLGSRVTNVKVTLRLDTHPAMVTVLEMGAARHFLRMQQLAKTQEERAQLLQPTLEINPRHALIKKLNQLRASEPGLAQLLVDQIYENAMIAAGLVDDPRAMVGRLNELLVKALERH
As to the kind of experiment: NanoBRET in-cell target engagement assay. The class given is binding. The following applies: probe-385, 1 µM; live SHSY5Y cells; FIG. 2. The procedure: In-cell target engagement assays were performed as described in Robers M.B. et al. (2019) Quantitative, Real-Time Measurements of Intracellular Target Engagement Using Energy Transfer. In: Ziegler S., Waldmann H. (eds) Systems Chemical Biology. Methods in Molecular Biology, vol 1888. Humana Press, New York, NY; Machleidt et al., ACS Chem. Biol. 2015, 10, 8, 1797-1804; or Vasta et al., Cell Chemical Biology 25, 206-214, Feb. 15, 2018; or as described herein.
Below is a protocol for transient transfection of SHSY5Y cells with NanoLuc® fusions. • 1. Cultivate SHSY5Y cells appropriately prior to assay in MEM w NEAA supplemented with 10% FBS. • 2. Remove medium from cell flask via aspiration, trypsinize, and allow cells to dissociate from the flask. • 3. Neutralize trypsin using growth medium and pellet cells via centrifugation at 200 g for 5 minutes. • 4. Aspirate medium and re-suspend cells into a single cell suspension using complete cell culture medium. • 5. Adjust the cell density to 300 K/mL in cell culture medium in a sterile, conical tube. • 6. Prepare lipid:DNA complexes as follows (this covers two assay plates, adjust numbers for more plates) • a. Prepare a 10 µg/mL solution of DNA in Opti-MEM without serum. This solution should contain the following ratios of carrier DNA and DNA encoding NanoLuc® fusion. • i. 5.0 µg/mL of Transfection Carrier DNA (pGEM) • ii. […]
In general terms: In BRET a luciferase serves as donor, and the signal depends on an acceptor being close.

`O=C(Nc1ccc2c(c1)S(=O)(=O)N(c1ccc(Br)cc1)CCO2)c1cnc(-c2ccccc2)[nH]1` [Compound 1331, N-(2-(4-bromophenyl)-1,1-dioxido-3,4-dihydro-2H-benzo[b][1,4,5]oxathiazepin-8-yl)-2-phenyl-1H-imidazole-5-carboxamide]: in test [1], the cyst formation entry is “preventing cyst formation”. In test [2], the “displacement of nanoBRET tracer” value is reported as “displacing the nanoBRET tracer molecule”.
